Patent publication US6960470B1 (priority 1998, dated 2005)

Test system: hippocampal slices from wt and Δ9 mutant (PS-1) animals
Type: cell-based

Molecule	AP5-sensitive potentials during tetanus, difference between wt and Δ9 mutant slices	difference in potentiation between wt and Δ9 mutation slices post-tetanus
AP5	no statistically significant difference between the two groups	
CN1C(=O)CN=C(c2ccccc2F)c2cc([N+](=O)[O-])ccc21 [flunitrazepam]		no statistically significant difference between the two groups
